Where two headings read alike, the source gives them in different places.
Target: T1, human cathepsin K (Homo sapiens, UniProt P43235)
T1 construct: The proform of cathepsin K was converted to mature cathepsin K by brief exposure to pH 4; made in house; host or cells: baculovirus; Trichoplusia ni High Five cells (virus raised in Sf-9)
T1 sequence (P43235 115-329): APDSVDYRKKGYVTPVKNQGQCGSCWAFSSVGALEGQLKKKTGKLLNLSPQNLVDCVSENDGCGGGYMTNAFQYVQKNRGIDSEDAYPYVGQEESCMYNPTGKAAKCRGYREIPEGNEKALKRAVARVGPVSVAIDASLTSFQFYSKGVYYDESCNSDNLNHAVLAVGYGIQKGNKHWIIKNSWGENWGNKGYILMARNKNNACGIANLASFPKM
Assay: cathepsin K inhibition assay, fluorogenic substrate Cbz-Phe-Arg-AMC, progress curve method
Type: biochemical
Details: human recombinant enzyme, 10 μM substrate
Method: All assays for cathepsin K were carried out with human and rat recombinant enzyme. Assays for cathepsins S & V were also carried out with human recombinant enzyme. Assays for human cathepsins B, H, and L were carried out with enzyme, purchased from Athens Research and Technology, Inc., prepared from human liver tissue. […] A stock substrate solution of Cbz-Phe-Arg-AMC was prepared at a concentration of 50 mM in dimethyl sulfoxide. This substrate was diluted into the assay for a final substrate concentration of 10 μM in the rat cathepsin K, human cathepsin K, and human cathepsin B assays; a final substrate concentration of 5 μM in the human cathepsin L assay; and a final substrate concentration of 2 μM in the human cathepsin V assay.
All assays contained 10% dimethyl sulfoxide. […] All assays were conducted at 30° C. Product fluorescence (excitation at 360 nm; emission at 440 nm, (except cathepsin H which used excitation at 340 nm; emission at 420 nm)) was monitored with a PerSeptive Biosystems Cytofluor II fluorescence plate reader. Product progress curves were generated over 2.3 h monitoring the formation of 7-amino-4-methylcoumarin product (or β-naphthalamide for cathepsin H).
Two liters of Spodoptera frugiperda (Sf-9) cells (ATCC) were grown in Grace's Supplemented medium (Life Technologies) supplemented with 2 g/L glucose, 10% fetal bovine serum (HyClone) and 0.1% pluronic F-68 (Life Technologies). […] The cells continued to grow for 72 h post-infection, before the virus was harvested by centrifugation at 1400×g for 30 min.
One and one-half liters of Trichoplusia ni (T. ni) High Five (™) cells [JRH Biosciences, Woodland, Calif. […] Media were separated from cells at a rate of 1 L/min using the Centritech 100 (™) continuous-flow centrifuge (DuPont) operating at 200×g.
Protein Purification: Media (human and rat) were filtered through a Whatman 3 filter, and then loaded onto a 25 mL Poros HS II (26 mm×47 mm) cation exchange column equilibrated in 25 mM sodium acetate at pH 5.5 (equilibration buffer). The column was washed until the absorbance reached the baseline value, and then the protein was eluted with a linear gradient from 0-2 M sodium chloride in the equilibration buffer. Column fractions were analyzed by SDS-PAGE, N-terminal sequencing, and mass spectrometry. Fractions containing the proform of cathepsin K were pooled and frozen at −80° C. The proform was concentrated in an Amicon Centriprep 10 and fractionated with a Superdex 75 column (26 mm×600 mm, Pharmacia) equilibrated in 400 mM sodium chloride, 25 mM sodium acetate at pH 5.5.
Cathepsin K Activation: The proform of cathepsin K was converted to mature cathepsin K by brief exposure to pH 4 in the presence of 5 mM L-cysteine. Typically, 5 mM L-cysteine was added to 10 mL of approximately 1 mg/mL procathepsin K. One mL of this solution was diluted ten-fold into 450 mM sodium acetate at pH 4.0 containing 5 mM L-cysteine. This solution was reacted at 23° C. for 2 min before neutralization with 2 mL 1.8 M sodium acetate at pH 6.0. The neutralized sample was added to the remaining 9 mL of procathepsin K. The mixture was incubated at 4° C. for 2-3 days. The activated cathepsin K was chromatographed on a Poros HS II column as described above.
Potential inhibitors were evaluated using the progress curve method. Assays were carried out in the presence of variable concentrations of test compound. Reactions were initiated by addition of buffered solutions of inhibitor and substrate to enzyme. Data analysis was conducted according to one of two procedures depending on the appearance of the progress curves in the presence of inhibitors. […] Ki values were calculated from IC50 values using equation 2 assuming a competitive model.

[1] = Table 1, pH 5.5, 30° C., read-out: hcatK Ki

Compound	Ki [1] [nM]	Ki (Table 2, read-out: hCat K Ki) [nM]
CCCC[C@H](NC(=O)OC1(Cc2ccccc2)CCCC1)C(=O)C(=O)N[C@@H](C)C(=O)OCc1ccccc1 [Example 3, Benzyl (2S)-2-{[(3S)-3-({[(1-benzylcyclopentyl)oxy]carbonyl}amino)-2-oxoheptanoyl]amino}propanoate]	10 to 100	10 to 100
CCCC[C@H](NC(=O)OCC1(Cc2ccc(F)cc2)CCC1)C(=O)C(=O)Nc1n[nH]c2cc(Cl)ccc12 [Example 15, [1-(4-fluorobenzyl)cyclobutyl]methyl(1S)-1-[[(6-chloro-1H-indazol-3-yl)amino](oxo)acetyl]pentylcarbamate]	< 1	< 1
CCCC[C@H](NC(=O)OC1(c2nc3ccccc3s2)CCCC1)C(=O)C(=O)Nc1ccn[nH]1 [Example 17, 1-(1,3-Benzothiazol-2-yl)cyclopentyl(1S)-1-[oxo(1H-pyrazol-3-ylamino)acetyl]pentylcarbamate]	1 to 10	1 to 10
